Results published in patent US7517874B2 (priority 2007, dated 2009).
Read-outs that look alike come from different tables or passages of the source.

Legend:
rat CB2 receptor (rCB2) = biological target: T1, rat CB2 receptor (rCB2) (Rattus norvegicus, UniProt Q9QZN9); test: cell-based; assay type: cell-based; settings: for +/− RCB2: agonist or inverse agonist at rCB2
T1 sequence (Q9QZN9 1-360): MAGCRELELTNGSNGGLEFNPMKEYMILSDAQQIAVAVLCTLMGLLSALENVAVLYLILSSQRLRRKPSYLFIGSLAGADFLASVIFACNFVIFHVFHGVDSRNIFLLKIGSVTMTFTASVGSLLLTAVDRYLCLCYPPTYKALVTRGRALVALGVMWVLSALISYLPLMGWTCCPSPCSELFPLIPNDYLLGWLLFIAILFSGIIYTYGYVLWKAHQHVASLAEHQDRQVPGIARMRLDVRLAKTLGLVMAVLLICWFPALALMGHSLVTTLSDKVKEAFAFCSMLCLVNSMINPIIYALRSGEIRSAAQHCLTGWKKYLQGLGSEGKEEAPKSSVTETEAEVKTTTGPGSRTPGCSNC
Summary of the method: (§1)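 First, cells in IBMX-containing HEPES-buffered HBSS are raised to elevated cAMP with 2-8 μM NKH-477 for 30 min. Data are normalised to the forskolin and forskolin + 1 μM CP55,940 controls.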

[1] = biological target: human CB1 receptor (hCB1) (Homo sapiens, UniProt P21554); test: cell-based; assay type: cell-based; settings: for +/− HCB1: agonist or inverse agonist at hCB1
Sequence of human CB1 receptor (hCB1) (P21554 whole entry): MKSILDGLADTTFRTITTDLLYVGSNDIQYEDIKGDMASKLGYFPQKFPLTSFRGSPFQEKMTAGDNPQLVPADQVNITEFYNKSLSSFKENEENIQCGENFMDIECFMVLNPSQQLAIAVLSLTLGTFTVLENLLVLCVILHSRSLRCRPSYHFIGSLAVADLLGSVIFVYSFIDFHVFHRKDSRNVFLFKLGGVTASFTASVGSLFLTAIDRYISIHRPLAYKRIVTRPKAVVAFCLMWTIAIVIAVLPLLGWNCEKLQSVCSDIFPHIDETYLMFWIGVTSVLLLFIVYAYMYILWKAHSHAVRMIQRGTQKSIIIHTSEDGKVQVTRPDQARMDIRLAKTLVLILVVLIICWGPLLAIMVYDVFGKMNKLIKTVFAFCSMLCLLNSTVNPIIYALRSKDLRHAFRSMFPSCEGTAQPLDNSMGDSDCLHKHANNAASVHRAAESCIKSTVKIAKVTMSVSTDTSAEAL
Summary of the method: as §1

SMILES	EC50 (rat CB2 receptor (rCB2)) [µM]	EC50 [1] [nM]	+/− RCB2 (rat CB2 receptor (rCB2))	EC50 ([1]; groups >100 nM-10 μM and >10 μM, cAMP, CHO-K1 hCB1, read-out: EC50 HCB1) [nM]	+/− HCB1 [1]
Cc1nnc(C)n1C1CCN(C(=O)c2nc(-c3ccc(Cl)cc3F)n3c2CN(C)CC3)CC1 [Compound 223, (3-(4-chloro-2-fluorophenyl)-7-methyl-5,6,7,8-tetrahydroimidazo[1,5-a]pyrazin-1-yl)(4-(3,5-dimethyl-4H-1,2,4-triazol-4-yl)piperidin-1-yl)methanone]	> 10	> 10000			
COC(=O)[C@@H](NC(=O)c1nc(-c2ccc(C)cc2F)n2c1CN(C)CCC2)C(C)(C)C [Compound 469, (S)-methyl 2-(3-(2-fluoro-4-methylphenyl)-8-methyl-6,7,8,9-tetrahydro-5H-imidazo[1,5-a][1,4]diazepine-1-carboxamido)-3,3-dimethylbutanoate]	> 10	> 10000			
COC(=O)[C@@H](NC(=O)c1nc(-c2ccc(C)cc2F)n2c1CNCCC2)C(C)(C)C [Compound 466]		> 10000	−		
CNC(=O)[C@H](CC(C)C)NC(=O)c1nc(-c2ccc(F)cc2F)n2c1CN(C)CCC2 [Compound 534, (S)-3-(2,4-difluorophenyl)-8-methyl-N-(4-methyl-1-(methylamino)-1-oxopentan-2-yl)-6,7,8,9-tetrahydro-5H-imidazo[1,5-a][1,4]diazepine-1-carboxamide]		> 10000	+		
CC(C)(CO)CNC(=O)c1nc(-c2ccccc2)n2c1CNCC2 [Compound 29, N-(3-hydroxy-2,2-dimethylpropyl)-3-phenyl-5,6,7,8-tetrahydroimidazo[1,5-a]pyrazine-1-carboxamide]			−	> 10000	
CN1CCn2c(-c3ccc(Cl)cc3F)nc(C(=O)N3CCC(C(=O)N4CCOCC4)CC3)c2C1 [Compound 226, (3-(4-chloro-2-fluorophenyl)-7-methyl-5,6,7,8-tetrahydroimidazo[1,5-a]pyrazin-1-yl)(4-(morpholine-4-carbonyl)piperidin-1-yl)methanone]	> 10	> 10000			
CNC(=O)[C@@H](NC(=O)c1nc(-c2cc(OC)cc(C(F)(F)F)c2)n2c1CN(C)CCC2)C(C)(C)C [Compound 418, (S)-N-(3,3-dimethyl-1-(methylamino)-1-oxobutan-2-yl)-3-(3-methoxy-5-(trifluoromethyl)phenyl)-8-methyl-6,7,8,9-tetrahydro-5H-imidazo[1,5-a][1,4]diazepine-1-carboxamide]		> 10000	−		
CNC(=O)[C@@H](NC(=O)c1nc(-c2ccccc2)n2c1CN(CC1CC1)CCC2)C(C)(C)C [Compound 321, (S)-8-(cyclopropylmethyl)-N-(3,3-dimethyl-1-(methylamino)-1-oxobutan-2-yl)-3-phenyl-6,7,8,9-tetrahydro-5H-imidazo[1,5-a][1,4]diazepine-1-carboxamide]		> 10000	−		
CNC(=O)[C@@H](NC(=O)c1nc(-c2ccccc2)n2c1CN(S(=O)(=O)C(C)C)CC2)C(C)(C)C [Compound 94, (S)-N-(3,3-dimethyl-1-(methylamino)-1-oxobutan-2-yl)-7-(isopropylsulfonyl)-3-phenyl-5,6,7,8-tetrahydroimidazo[1,5-a]pyrazine-1-carboxamide]		> 10000	−		
CNC(=O)[C@@H](NC(=O)c1nc(CCC2CC2)n2c1CN(C)CCC2)C(C)(C)C [Compound 490, (S)-3-(2-cyclopropylethyl)-N-(3,3-dimethyl-1-(methylamino)-1-oxobutan-2-yl)-8-methyl-6,7,8,9-tetrahydro-5H-imidazo[1,5-a][1,4]diazepine-1-carboxamide]		> 10000	+		
Cc1ccc(-c2nc(C(=O)N[C@H](c3nc(C)no3)C(C)(C)C)c3n2CCCN(C(=O)OC(C)(C)C)C3)c(F)c1 [Compound 518, (S)-tert-butyl 1-(2,2-dimethyl-1-(3-methyl-1,2,4-oxadiazol-5-yl)propylcarbamoyl)-3-(2-fluoro-4-methylphenyl)-6,7-dihydro-5H-imidazo[1,5-a][1,4]diazepine-8(9H)-carboxylate]		> 10000	−		
CNC(=O)[C@@H](NC(=O)c1nc(-c2ccccc2)n2c1CN(C(=O)OC(C)(C)C)CCC2)C(C)(C)C [Compound 312, (S)-tert-butyl 1-(3,3-dimethyl-1-(methylamino)-1-oxobutan-2-ylcarbamoyl)-3-phenyl-6,7-dihydro-5H-imidazo[1,5-a][1,4]diazepine-8(9H)-carboxylate]		> 10000	−		
CNC(=O)[C@H](CC(C)C)NC(=O)c1nc(-c2cc(Cl)c(F)cc2F)n2c1CN(C)CCC2 [Compound 539, (S)-3-(5-chloro-2,4-difluorophenyl)-8-methyl-N-(4-methyl-1-(methylamino)-1-oxopentan-2-yl)-6,7,8,9-tetrahydro-5H-imidazo[1,5-a][1,4]diazepine-1-carboxamide]			+		+
CNC(=O)[C@@H](NC(=O)c1nc(C#Cc2ccccc2)n2c1CN(C)CC2)C(C)(C)C [Compound 204, (S)-N-(3,3-dimethyl-1-(methylamino)-1-oxobutan-2-yl)-7-methyl-3-(phenylethynyl)-5,6,7,8-tetrahydroimidazo[1,5-a]pyrazine-1-carboxamide]	> 10	> 10000			
CNC(=O)[C@@H](NC(=O)c1nc(CCCN2CCOCC2)n2c1CN(C)CCC2)C(C)(C)C [Compound 500, (S)-N-(3,3-dimethyl-1-(methylamino)-1-oxobutan-2-yl)-8-methyl-3-(3-morpholinopropyl)-6,7,8,9-tetrahydro-5H-imidazo[1,5-a][1,4]diazepine-1-carboxamide]	> 10	> 10000			
CN1CCCn2c(-c3cc(Cl)c(F)cc3F)nc(C(=O)N[C@H](C(N)=O)C(C)(C)C)c2C1 [Compound 580, (S)-N-(1-amino-3,3-dimethyl-1-oxobutan-2-yl)-3-(5-chloro-2,4-difluorophenyl)-8-methyl-6,7,8,9-tetrahydro-5H-imidazo[1,5-a][1,4]diazepine-1-carboxamide]			+		+
CNC(=O)[C@@H](NC(=O)c1nc(C(=O)Nc2ccccc2)n2c1CN(C)CC2)C(C)(C)C [Compound 290, (S)-N1-(3,3-dimethyl-1-(methylamino)-1-oxobutan-2-yl)-7-methyl-N3-phenyl-5,6,7,8-tetrahydroimidazo[1,5-a]pyrazine-1,3-dicarboxamide]		> 10000	−		
CNC(=O)[C@@H](NC(=O)c1nc(/C=C/CN2CCOCC2)n2c1CN(C)CC2)C(C)(C)C [Compound 286, (S,E)-N-(3,3-dimethyl-1-(methylamino)-1-oxobutan-2-yl)-7-methyl-3-(3-morpholinoprop-1-enyl)-5,6,7,8-tetrahydroimidazo[1,5-a]pyrazine-1-carboxamide]		> 10000	+		
CN1CCCn2c(-c3ccc(F)cc3F)nc(C(=O)N[C@H](C(N)=O)C(C)(C)C)c2C1 [Compound 578, (S)-N-(1-amino-3,3-dimethyl-1-oxobutan-2-yl)-3-(2,4-difluorophenyl)-8-methyl-6,7,8,9-tetrahydro-5H-imidazo[1,5-a][1,4]diazepine-1-carboxamide]			+		+
CNC(=O)[C@@H](NC(=O)c1nc(-c2cccc(C#N)c2)n2c1CN(C)CC2)C(C)(C)C [Compound 260, (S)-3-(3-cyanophenyl)-N-(3,3-dimethyl-1-(methylamino)-1-oxobutan-2-yl)-7-methyl-5,6,7,8-tetrahydroimidazo[1,5-a]pyrazine-1-carboxamide]		> 10000	−		
CNC(=O)[C@@H](NC(=O)c1nc(-c2ccco2)n2c1CNCC2)C(C)(C)C [Compound 15, (S)-N-(3,3-dimethyl-1-(methylamino)-1-oxobutan-2-yl)-3-(furan-2-yl)-5,6,7,8-tetrahydroimidazo[1,5-a]pyrazine-1-carboxamide]		> 10000	+		
CC(C)(C)[C@@H](CO)NC(=O)c1nc(-c2ccc(Cl)cc2)n2c1CNCC2 [Compound 43, (S)-3-(4-chlorophenyl)-N-(1-hydroxy-3,3-dimethylbutan-2-yl)-5,6,7,8-tetrahydroimidazo[1,5-a]pyrazine-1-carboxamide]		> 10000	−		
CNC(=O)[C@@H](NC(=O)c1nc(-c2ccc(C)c(F)c2)n2c1CN(C)CCC2)C(C)(C)C [Compound 360, (S)-N-(3,3-dimethyl-1-(methylamino)-1-oxobutan-2-yl)-3-(3-fluoro-4-methylphenyl)-8-methyl-6,7,8,9-tetrahydro-5H-imidazo[1,5-a][1,4]diazepine-1-carboxamide]	> 10	> 10000			
CNC(=O)[C@@H](NC(=O)c1nc(-c2cc(F)c(F)cc2F)n2c1CN(C)CCC2)C(C)(C)C [Compound 371, (S)-N-(3,3-dimethyl-1-(methylamino)-1-oxobutan-2-yl)-8-methyl-3-(2,4,5-trifluorophenyl)-6,7,8,9-tetrahydro-5H-imidazo[1,5-a][1,4]diazepine-1-carboxamide]			+		+
CNC(=O)[C@@H](NC(=O)c1nc(CCc2ccsc2)n2c1CN(C)CCC2)C(C)(C)C [Compound 495, (S)-N-(3,3-dimethyl-1-(methylamino)-1-oxobutan-2-yl)-8-methyl-3-(2-(thiophen-3-yl)ethyl)-6,7,8,9-tetrahydro-5H-imidazo[1,5-a][1,4]diazepine-1-carboxamide]		> 10000	+		
